Measured values reported in article doi:10.1101/2024.12.09.627639v1 (biorxiv, 2024).

Molecular target: FFA1 (GPR40) (Homo sapiens, UniProt O14842)
Assay: aequorin calcium luminescence assay, CHO cells
Type: cell-based

Sequence of FFA1 (GPR40) (O14842 whole entry): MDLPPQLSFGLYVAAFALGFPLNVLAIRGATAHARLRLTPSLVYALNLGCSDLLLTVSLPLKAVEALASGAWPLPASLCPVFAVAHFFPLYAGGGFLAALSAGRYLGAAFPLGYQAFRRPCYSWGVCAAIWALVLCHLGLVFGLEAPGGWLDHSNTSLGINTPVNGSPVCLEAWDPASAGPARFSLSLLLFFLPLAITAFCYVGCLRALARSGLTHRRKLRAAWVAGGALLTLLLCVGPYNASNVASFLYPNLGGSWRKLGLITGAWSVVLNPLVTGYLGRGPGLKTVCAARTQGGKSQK

Compound: CC/C=C\C/C=C\C/C=C\C/C=C\C/C=C\C/C=C\CCC(=O)O [DHA]
- EC50: 40 µM
